Measured values as given in ChEMBL document CHEMBL5291721, “A preclinical secondary pharmacology resource illuminates target-adverse drug reaction associations of marketed drugs” (Nat Commun, 2023).

Key:
[1] = target: T1, Alpha-1A adrenergic receptor (Homo sapiens, UniProt P35348); assay type: functional, cell-based; also: assay procedure not described here
T1 sequence (P35348 whole entry): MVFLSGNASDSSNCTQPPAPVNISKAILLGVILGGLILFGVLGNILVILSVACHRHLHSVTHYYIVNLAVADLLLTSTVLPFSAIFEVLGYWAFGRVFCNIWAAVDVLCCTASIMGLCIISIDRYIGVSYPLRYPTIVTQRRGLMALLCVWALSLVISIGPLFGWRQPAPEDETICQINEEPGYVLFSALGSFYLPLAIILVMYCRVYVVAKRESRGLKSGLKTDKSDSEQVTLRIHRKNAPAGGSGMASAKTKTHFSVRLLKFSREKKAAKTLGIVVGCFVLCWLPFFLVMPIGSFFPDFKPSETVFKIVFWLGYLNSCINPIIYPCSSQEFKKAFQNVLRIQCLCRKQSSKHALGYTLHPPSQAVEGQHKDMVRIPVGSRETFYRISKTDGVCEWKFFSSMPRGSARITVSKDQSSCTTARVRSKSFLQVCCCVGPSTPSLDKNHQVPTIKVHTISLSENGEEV

Glucocorticoid receptor [2] = target: T2, Glucocorticoid receptor (Homo sapiens, UniProt P04150); assay type: functional; also: assay procedure not described here
T2 sequence (P04150 whole entry): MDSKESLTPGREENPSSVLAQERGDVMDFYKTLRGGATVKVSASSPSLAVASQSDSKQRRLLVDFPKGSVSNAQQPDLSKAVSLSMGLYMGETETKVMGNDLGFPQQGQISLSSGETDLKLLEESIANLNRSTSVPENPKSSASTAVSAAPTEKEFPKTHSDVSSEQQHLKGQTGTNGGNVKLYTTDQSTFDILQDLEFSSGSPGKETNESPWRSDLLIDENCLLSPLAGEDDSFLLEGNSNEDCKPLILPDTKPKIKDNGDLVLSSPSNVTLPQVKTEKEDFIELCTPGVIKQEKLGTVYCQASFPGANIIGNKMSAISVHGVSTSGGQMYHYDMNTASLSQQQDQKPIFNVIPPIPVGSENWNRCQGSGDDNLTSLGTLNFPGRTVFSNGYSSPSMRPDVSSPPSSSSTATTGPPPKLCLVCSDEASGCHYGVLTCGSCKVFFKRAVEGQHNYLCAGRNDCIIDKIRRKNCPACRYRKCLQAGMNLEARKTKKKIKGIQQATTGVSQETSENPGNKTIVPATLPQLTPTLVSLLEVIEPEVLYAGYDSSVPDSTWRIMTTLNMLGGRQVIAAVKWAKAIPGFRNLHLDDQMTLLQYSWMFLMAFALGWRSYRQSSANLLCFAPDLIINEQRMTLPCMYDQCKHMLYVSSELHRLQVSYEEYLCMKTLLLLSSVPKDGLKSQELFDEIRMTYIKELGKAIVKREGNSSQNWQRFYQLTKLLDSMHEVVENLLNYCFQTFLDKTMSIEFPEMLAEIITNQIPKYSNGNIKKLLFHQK

Glucocorticoid receptor [3] = target: T2, Glucocorticoid receptor; assay type: functional; remark: listed apart in the source
[4] = target: T3, Prostaglandin G/H synthase 1 (Rattus norvegicus, UniProt Q63921); assay type: functional; also: assay procedure not described here
T3 sequence (Q63921 whole entry): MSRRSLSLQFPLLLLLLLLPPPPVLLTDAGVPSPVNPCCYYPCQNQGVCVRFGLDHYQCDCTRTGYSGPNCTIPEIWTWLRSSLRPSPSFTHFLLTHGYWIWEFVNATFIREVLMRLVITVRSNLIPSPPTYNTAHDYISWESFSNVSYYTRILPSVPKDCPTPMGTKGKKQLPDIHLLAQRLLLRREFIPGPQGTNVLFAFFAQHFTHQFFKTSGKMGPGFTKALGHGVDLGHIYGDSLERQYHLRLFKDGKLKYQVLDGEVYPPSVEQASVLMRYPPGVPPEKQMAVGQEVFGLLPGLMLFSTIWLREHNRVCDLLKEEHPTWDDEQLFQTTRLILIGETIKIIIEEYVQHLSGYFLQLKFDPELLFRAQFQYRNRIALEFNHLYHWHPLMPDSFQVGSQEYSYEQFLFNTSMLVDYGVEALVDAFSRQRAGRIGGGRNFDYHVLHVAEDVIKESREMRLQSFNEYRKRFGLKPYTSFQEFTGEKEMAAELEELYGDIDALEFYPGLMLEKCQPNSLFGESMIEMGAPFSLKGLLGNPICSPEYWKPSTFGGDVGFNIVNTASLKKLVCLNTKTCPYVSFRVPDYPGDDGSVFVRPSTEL

[5] = target: T4, Alpha-2A adrenergic receptor (Homo sapiens, UniProt P08913)
T4 sequence (P08913 whole entry): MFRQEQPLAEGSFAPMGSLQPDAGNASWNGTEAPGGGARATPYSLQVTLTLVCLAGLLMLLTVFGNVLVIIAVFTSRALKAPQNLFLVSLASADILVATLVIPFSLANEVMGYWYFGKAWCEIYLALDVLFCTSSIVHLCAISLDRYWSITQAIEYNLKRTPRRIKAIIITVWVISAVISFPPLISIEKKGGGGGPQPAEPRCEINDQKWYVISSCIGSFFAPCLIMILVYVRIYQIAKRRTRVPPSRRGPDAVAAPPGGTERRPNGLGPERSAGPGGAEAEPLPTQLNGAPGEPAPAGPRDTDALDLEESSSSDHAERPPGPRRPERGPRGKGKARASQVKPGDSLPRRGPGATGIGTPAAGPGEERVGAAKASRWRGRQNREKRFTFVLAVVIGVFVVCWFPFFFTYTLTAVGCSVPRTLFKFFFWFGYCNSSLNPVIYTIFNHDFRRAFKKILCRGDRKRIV

[6] = target: T5, Alpha-2C adrenergic receptor (Homo sapiens, UniProt P18825); assay type: functional
T5 sequence (P18825 whole entry): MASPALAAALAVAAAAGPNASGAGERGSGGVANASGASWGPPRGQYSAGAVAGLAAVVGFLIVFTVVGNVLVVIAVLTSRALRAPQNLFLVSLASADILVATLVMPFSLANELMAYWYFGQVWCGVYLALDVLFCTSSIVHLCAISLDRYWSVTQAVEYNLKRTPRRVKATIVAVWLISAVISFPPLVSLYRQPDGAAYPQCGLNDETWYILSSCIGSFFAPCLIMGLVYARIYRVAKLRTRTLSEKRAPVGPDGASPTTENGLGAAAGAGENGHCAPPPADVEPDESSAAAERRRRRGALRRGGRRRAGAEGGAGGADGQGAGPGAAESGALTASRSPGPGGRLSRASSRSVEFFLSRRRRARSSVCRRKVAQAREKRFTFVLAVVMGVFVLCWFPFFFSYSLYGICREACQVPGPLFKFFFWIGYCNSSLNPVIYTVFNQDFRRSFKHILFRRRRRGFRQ

In the case of `NCCCC(O)(P(=O)(O)O)P(=O)(O)O` [ALENDRONIC ACID], the AC50 [1] was > 30 µM.
`COc1cccc2c1C(=O)c1c(O)c3c(c(O)c1C2=O)C[C@@](O)(C(C)=O)C[C@@H]3O[C@H]1C[C@H](N)[C@H](O)[C@H](C)O1` [DAUNORUBICIN] was tested, and the AC50 (Glucocorticoid receptor [2]) was > 10 µM and the AC50 (Glucocorticoid receptor [3]) was > 10 µM.
`COC(=O)N[C@@H](C)CNc1nccc(-c2cn(C(C)C)nc2-c2cc(Cl)cc(NS(C)(=O)=O)c2F)n1` [ENCORAFENIB] was tested, and the AC50 [4] was > 30 µM.
Compound `CC(C)CC(N(C)C)C1(c2ccc(Cl)cc2)CCC1` (stereo unspecified) [SIBUTRAMINE] has an AC50 [5] of 2.14 µM and an AC50 [6] of 0.758 µM.
